What was measured:
Format in all cases: cell-based, human
[1] = tested on: Daoy cells; assay: Fibronectin-mediated cell migration assay (Boyden chamber, Chemicon QCM-FN)
Description: Fibronectin-mediated cell adhesion and migration were assessedusing the Chemicon QCM-FN Quantitative Cell Migration Assay (Chemicon International). Briefly, Daoy cells were grown in EMEM withh 10% FBS to 80% confluency and starved in serum-free EMEM for 24 h. Cells were washed twice with PBS, harvested them with trypsin/EDTA, and resuspended them in serum-free EMEM (1×10^6 cells/ml) with 5% BSA for 1 h. We subsequently incubated cells at 37 ° C. for 30 min with either no antibody, 0.6 ug/ml of neutralizing monoclonal anti-human PDGFRA antibody (R&D Systems), 0.6 ug/mi isotype-matched control antibody (R&D Systems), and or first pretreated them with 10 μM of MAP2K1/MAP2K2 inhibitor U0126 (Cell Signaling Technology) for 1 h. We based the concentration of antibody used on the ND50 for this lot of antibody for blocking 10 ng/ml of PDGFRA biologic activity on human WS1 cells (per R&D Systems product insert). We based the concentration of MAP2K1/MAP2K2 inhibitor U0126 used on the manufacturer?s recommendation. Following incubations, we resuspended the cells, and placed aliquots of 2×10^5 cells in 200 ul of serum-free EMEM into the upper fibronectin-(FN-) coated or BSA-coated (control) Boyden chambers (migration assay), or FN-coated wells (adhesion assay). The lower well contained 0, 1, 2, 4, 6, 8, or 10 ng/ml PDGFA (Chemicon) in 300 ll serum-free EMEM. We incubated the cells for 3 h at 37° C., stained them with cell stain solution (Chemicon), and subsequently washed them. We removed the medium, as well as non-adherent or non-migrating cells, from the upper side of the Boyden chamber membranes. We first visualized the cells by microscopy, and then subsequently eluted migrating or adherent cells with extraction solution (Chemicon) according to the manufacturer? s instructions. We aliquoted eluant (50 μl)×2 for each test sample into microtiter plates, and read the optical density (OD540-570) on a ThermoMax microplate reader (Molecular Devices). Using standardized migration rates of 130 cells per mm^2 equivalent to an OD550 of 0.270 (per Chemicon product insert), we obtained the final cell counts by averaging the two OD measurements (540 nm and 570 nm) after subtraction of the BSA control measurements (background), and determined significance (P value) using a t-test.
We tested the significance of PDGFRA in the metastatic potential of Daoy cells by fibronectin-dependent adhesion and migration assays.
To further test whether medulloblastoma migration is directly linked in part to downstream MAP2K1, MAP2K2 and MAPK1/3 activation, Daoy migration was tested in an identical fashion to that described above, except that cells were pretreated with U0126, a highly specific chemical inhibitor of MAP2K1 and MAP2K2 (FIG. 5b).

[2] = tested on: MAPK1/3; assay: Western blot, phospho-MAPK1/3 to total ratio in Daoy cell lysates
Description: (§1) Daoy cells were treated in a manner identical to that described above for migration. After described incubation with PDGFA, PDGFRA antibody, or MAP2K1/MAP2K2 inhibitor U0126, we prepared cell lysates by adding 500 ul lysis buffer (Cell Signaling Technology) to cell pellets on ice for 20 min, sonicating, and centrifuging at 10,000 RPM for 10 min. We collected the supernatants and mixed equal amounts of lysate protein (5.2 ug) in a 1:1 mixture with Tris-Glycine SDS sample buffer Covex). Samples were run on a 12% SDS-PAGE gel (BioRad) along with broad range protein markers (BioRad) at 125 V for 1 h. We transferred proteins to PVDF membrane (NEN Life Sciences) using a semi-dry transfer cell (BioRad). We first soaked the membrane in anhydrous methanol for 2 min, deionized water for 5 min, and transfer buffer (25 mM Tris, 0.2 M glycine, 20% methanol, pH 8.5) for 10 min. The gels were pre-soaked in transfer buffer for 15 min and subsequently electro-blotted to the membrane between filter paper soaked in transfer buffer for 45 min at a current equivalent to 2.5 × total gel area (cm^2). Following blotting, we incubated the membrane in blocking buffer (3% BSA in TBS-T) for 1 h at room temperature with gentle agitation. We subsequently incubated the membrane with primary antibody (MAP2K1/2 antibody, phospho-MAP2K1/2 (Ser217/221) antibody, MAPK1/3 (p42/p44 MAPK) antibody, or phospho-MAPK1/3 (Thr202/Tyr204) antibody; Cell Signaling Technology) diluted 1:1000 in blocking buffer overnight at 4° C. We washed the membranes in wash buffer (1% BSA in TBS-T) 3 times (1× for 10 min and 2× for 5 min) and incubated them with anti-rabbit HRP-conjugated secondary antibody (Cell Signaling Technology) diluted 1:2000 in blocking buffer for 1 h with gentle agitation at room temperature. We subsequently washed membranes with gentle agitation 5 times with 1%BSA in TBS-T (1× for 10 min in, 4× for 5 min) and once in TBS-T for 5 min. […] We scanned the developed films, and determined the optical density of each lane using NIH Image (available at http://rsb.info.nih.gov/nih-image/Default.html). […]

[3] = tested on: MAP2K2; assay: Western blot, phospho-MAP2K2 to total ratio in Daoy cell lysates; settings: PDGFA 10 ng/ml
Description: as §1, with “agitation.” for “agitation. We subsequently incubated the membrane with primary antibody (MAP2K1/2 antibody, phospho-MAP2K1/2 (Ser217/221) antibody, MAPK1/3 (p42/p44 MAPK) antibody, or phospho-MAPK1/3 (Thr202/Tyr204) antibody; Cell Signaling Technology) diluted 1:1000 in blocking buffer overnight at 4° C. We washed the membranes in wash buffer (1% BSA in TBS-T) 3 times (1× for 10 min and 2× for 5 min) and incubated them with anti-rabbit HRP-conjugated secondary antibody (Cell Signaling Technology) diluted 1:2000 in blocking buffer for 1 h with gentle agitation at room temperature. We subsequently washed membranes with gentle agitation 5 times with 1%BSA in TBS-T (1× for 10 min in, 4× for 5 min) and once in TBS-T for 5 min.”

[4] = tested on: Daoy cells; assay: Fibronectin-mediated cell adhesion assay (Chemicon QCM-FN); settings: increasing concentrations of PDGFA, no antibody
Description: Fibronectin-mediated cell adhesion and migration were assessedusing the Chemicon QCM-FN Quantitative Cell Migration Assay (Chemicon International). Briefly, Daoy cells were grown in EMEM withh 10% FBS to 80% confluency and starved in serum-free EMEM for 24 h. Cells were washed twice with PBS, harvested them with trypsin/EDTA, and resuspended them in serum-free EMEM (1×10^6 cells/ml) with 5% BSA for 1 h. We subsequently incubated cells at 37 ° C. for 30 min with either no antibody, 0.6 ug/ml of neutralizing monoclonal anti-human PDGFRA antibody (R&D Systems), 0.6 ug/mi isotype-matched control antibody (R&D Systems), and or first pretreated them with 10 μM of MAP2K1/MAP2K2 inhibitor U0126 (Cell Signaling Technology) for 1 h. […] We aliquoted eluant (50 μl)×2 for each test sample into microtiter plates, and read the optical density (OD540-570) on a ThermoMax microplate reader (Molecular Devices). Using standardized migration rates of 130 cells per mm^2 equivalent to an OD550 of 0.270 (per Chemicon product insert), we obtained the final cell counts by averaging the two OD measurements (540 nm and 570 nm) after subtraction of the BSA control measurements (background), and determined significance (P value) using a t-test. […]

[5] = tested on: MAP2K1; assay: Western blot, phospho-MAP2K1 to total ratio in Daoy cell lysates; settings: PDGFA 10 ng/ml
Description: as §1, with “agitation.” for “agitation. We subsequently incubated the membrane with primary antibody (MAP2K1/2 antibody, phospho-MAP2K1/2 (Ser217/221) antibody, MAPK1/3 (p42/p44 MAPK) antibody, or phospho-MAPK1/3 (Thr202/Tyr204) antibody; Cell Signaling Technology) diluted 1:1000 in blocking buffer overnight at 4° C. We washed the membranes in wash buffer (1% BSA in TBS-T) 3 times (1× for 10 min and 2× for 5 min) and incubated them with anti-rabbit HRP-conjugated secondary antibody (Cell Signaling Technology) diluted 1:2000 in blocking buffer for 1 h with gentle agitation at room temperature. We subsequently washed membranes with gentle agitation 5 times with 1%BSA in TBS-T (1× for 10 min in, 4× for 5 min) and once in TBS-T for 5 min.”

Molecule	decreased cell migration, % ([1]; U0126 10 μM pretreatment, no PDGFA) [%]	migration, % of normal baseline migration ([1]; U0126 treated cells, 1 ng/ml PDGFA) [%]	Daoy cell migration ([1]; U0126 treated cells, 1 ng/ml PDGFA, baseline 275, P<0.05) [cells/mm^2]	migration, % of normal baseline migration ([1]; U0126 treated cells, 10 ng/ml PDGFA) [%]	Daoy cell migration ([1]; U0126 treated cells, 10 ng/ml PDGFA, baseline 275, P<0.05) [cells/mm^2]	Daoy cell migration ([1]; U0126 treated cells, no PDGFA, untreated 275, P<0.05) [cells/mm^2]	decrease in baseline phosphorylation of MAPK1/3, fold ([2]; U0126 10 μM pretreatment 1 h, at start of migration assay) [fold]	effect on PDGFA-mediated MAPK1/3 phosphorylation ([2]; U0126 pre-treatment then PDGFA (FIG. 6b))	increase in MAP2K2 phosphorylation, fold [3] [fold]	effect on adhesion of Daoy cells to fibronectin [4]	stimulation of Daoy migration across fibronectin-coated membranes, fold ([1]; 1 ng/ml PDGFA in lower well, vs no PDGFA)	Daoy cell migration ([1]; 1 ng/ml PDGFA in lower well, untreated 212) [cells/mm^2]	Daoy cell migration ([1]; 4 ng/ml PDGFA in lower well, untreated 212) [cells/mm^2]	increase in Daoy migration, fold ([1]; 10 ng/ml PDGFA in lower well, vs no PDGFA) [fold]	Daoy cell migration ([1]; 10 ng/ml PDGFA in lower well, untreated 212) [cells/mm^2]	increase in MAP2K1 phosphorylation, fold [5] [fold]	increase in MAPK1/3 phosphorylation, fold ([2]; PDGFA 10 ng/ml) [fold]
N#CC(=C(/N)Sc1ccccc1N)/C(C#N)=C(\N)Sc1ccccc1N [U0126]	50	57	158	65	188	139	9	blocks PDGFA-mediated MAPK1/3 phosphorylation									
PDGFA: PDGFRA ligand, growth factor (Chemicon) used to stimulate Daoy cells									1.3	did not affect the adhesion	approximately 3 fold	640	819	4	847	1.6	1.7

Reference: US20040126755A1, “Gene expression based method for distinguishing metastatic from non-metastatic forms of a tumor, and use in designing therapeutic drugs” (priority 2001, published 2004)
